“And” between values parts separate entries of the source, which are not always exact repeats. Identical values can stand only once.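 Five compound concentrations were applied to cells in 96-well plates for 48 hours; endpoints were derived by simple linear interpolation of the resulting dose-response curve. GI50 is the concentration that inhibits growth by half. Definition used: TGI = concentration required for complete inhibition of growth.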 Where only a bound is given, the exact number is not on record here.

Holding throughout (assay): NCI-60 cell line screen, 48 h
Assay [1] concerns SF-295 CNS.
For assay [2], the system named is 786-0 renal.
The test system of assay [3] is HT29 colon.
Assay [4] concerns NCI-H23 lung.
Assay [5] concerns SW-620 colon.
The test system of assay [6] is ACHN renal.
The subject of assay [7] is HCT-15 colon.
In assay [8] the test system is UACC-62 melanoma.
The subject of assay [9] is COLO 205 colon.

Regarding `O=c1c2ccccc2[nH]c2c(O)ccc(O)c12`, the TGI in assay [1] is 38.5 µM; in assay [2] it was 38.8 µM; in [3], above 84.9 µM; in assay [4], 71.5 µM; in assay [5], 36.1 µM; in [6] it was 33.7 µM. The TGI is 37.2 µM in [7] and 33.5 µM in assay [8].

In the case of `O=C1C(=C2CCCC2)CCC1CN1CCCCC1` (configuration not stated), the TGI was 73.5 µM in [9]; above 100 µM in [1]; 26.4 µM in assay [2]; 42.1 µM in assay [3]; 36.4 µM in assay [4]; 32.1 µM in [5]. The TGI in assay [7] came to 31.2 µM; in [8] it was 34 µM.

Consider `Cc1coc2c1C(=O)C(=O)c1ccccc1-2`, for which the TGI in [1] is 3.03 µM; in [2], 3.24 µM; in assay [3], 3.53 µM; in assay [4] it was 4.09 µM; in assay [5], 2.92 µM; in assay [7], 3.42 µM. Moreover, in assay [8], the TGI was determined as 3.25 µM.

With `CCc1cccc(C(C)C)c1NC(=O)CCl`, the TGI in assay [1], in [2], in assay [3], in assay [4], in [5] and in assay [6] was above 100 µM in each case. Also, the TGI in assay [7] and in assay [8] was above 100 µM throughout.

Consider `Cc1ccc(S(=O)(=O)NC(=O)NCCc2ccccc2)cc1`, for which the TGI in [9], in [1], in assay [2], in [4], in assay [5] and in assay [6] was above 100 µM each time. The compound further registered a TGI in [8] above 100 µM.

Turning to `Nc1ccc(-c2cc(C(=O)Nc3nccs3)[nH]c(=S)n2)cc1`, the TGI in assay [9], in assay [2], in assay [3], in [4], in [5] and in assay [6] was above 100 µM throughout. Also, the TGI in [7] and in assay [8] was above 100 µM throughout.

`C[P+](C)(C)C`: the TGI in assay [9], in assay [1], in assay [2], in assay [3], in [4] and in assay [5] was above 100 µM throughout. Further, the TGI in assay [6], in [7] and in assay [8] was above 100 µM throughout.

`CC1=C(C(=O)NCc2ccccc2)C(c2ccc(Cl)c(Cl)c2)C(C(=O)NCc2ccccc2)=C(C)N1`: the TGI in [1], in assay [2], in assay [3], in assay [4], in assay [5] and in assay [6] was above 100 µM throughout. Also, the TGI in [7] and in assay [8] was above 100 µM in each case.

On to `CC1=CC(C)(c2c[nH]c3ccccc23)CC(C)(C)c2c1[nH]c1ccccc21` (configuration not stated), for which the TGI in [1] amounted to 32.6 µM; in assay [2], 27.1 µM; in assay [3] it was 28.6 µM; in assay [4] it was 28.5 µM; in [5], 32.1 µM; in assay [6], 44.5 µM. The TGI in assay [8] worked out at 36.6 µM.

`Cc1cccc(C)c1NC(=O)CCC/C(CC(=O)c1ccc(F)cc1)=N\NC(=O)C(=O)NN`: the TGI in assay [9], in assay [1], in [2], in assay [3], in [4] and in assay [5] was above 100 µM in each case. Also, the TGI in assay [6], in assay [7] and in [8] was above 100 µM each time.

As for `CC1(C)CCCC2(C)C3C(O)CC2(C)C(O)C31` (configuration not stated), the TGI is above 100 µM in assay [9]; above 100 µM in assay [1]; 0.156 µM in [2]; above 100 µM in assay [3]; above 100 µM in assay [4]; above 100 µM in [5]. Moreover, the TGI in [6], in [7] and in [8] was above 100 µM in each case.

For the compound `CCCCC(C)/C=C/C(=O)C1=C(O)/C(=C/C(=O)O)OC1=O` (configuration not stated), the TGI in [9], in [1], in assay [2], in assay [3], in assay [4] and in assay [5] was above 100 µM throughout. In addition, the TGI in assay [6], in assay [7] and in [8] was above 100 µM each time.

In the case of `Cn1c(=O)nc2n(-c3ccc(Cl)cc3)c(-c3ccccc3)c(-c3ccccc3)nc-2c1=O`, the TGI in assay [9], in assay [1], in [2], in assay [3], in assay [4] and in [5] was above 100 µM throughout. Besides, the TGI in assay [6] is 49.8 µM; in assay [7], above 100 µM; in [8] it was 32.5 µM.

Take `C[C@H]1C/C=C/[C@H]2[C@@H]3O[C@]3(C)[C@@H](C)[C@H]3[C@H](Cc4ccccc4)NC(=O)[C@]32OC(=O)O/C=C/[C@@](C)(O)C1=O`: the GI50 in assay [9] was 0.0194 µM and 0.0125 µM and 0.025 µM; in [1] it was 0.0484 µM and 0.025 µM; in assay [3] it was 0.0465 µM and 0.025 µM; in assay [4] it was 0.17 µM and 0.13 µM; in [8] it was 0.0652 µM and 0.025 µM. Besides, the TGI in assay [9] is 49.2 µM and 98.6 µM and 70.8 µM; in assay [2], 63.5 µM; in assay [3], 99.2 µM and 125 µM and > 250 µM; in assay [7] it was 56.6 µM.

With `Cc1ccc(S(=O)(=O)N/N=C(\c2nc3ccc([N+](=O)[O-])cc3[nH]c2=O)C(O)c2ccc([N+](=O)[O-])cc2)cc1` (configuration not stated), the TGI in [9], in [1], in assay [2], in assay [4], in assay [5] and in assay [6] was above 100 µM in each case. Moreover, the TGI in assay [7] and in assay [8] was above 100 µM each time.

Consider `CCOC(=O)C1C=C2O[C@@H]3OC4(CCCCC4)O[C@@H]3C2C2C(=O)CCC(=O)[C@@]12C(=O)OC` (some centres not stated), for which the TGI in assay [9], in [1], in [2], in assay [4], in assay [5] and in [6] was above 100 µM each time. The TGI in assay [7] and in assay [8] was above 100 µM in each case.

Regarding `S=c1o[nH]c(-c2ccccc2)c1C=Nc1ccccc1`, the TGI in assay [9], in [1], in assay [2], in [3], in assay [4] and in assay [5] was above 100 µM each time. The TGI in assay [6], in assay [7] and in assay [8] was above 100 µM in each case.

In the case of `C/C(=N\NC(=O)C[N+](C)(C)C)c1sc(-c2cccnc2)nc1C`, the TGI in [9], in assay [1], in assay [2], in assay [3], in assay [4] and in assay [5] was above 100 µM throughout. In addition, the TGI in assay [6] and in [8] was above 100 µM throughout.

As to `CCOC(=O)C(=O)Nc1cc(Cl)c(Cl)cc1Cl`, the TGI in assay [9], in assay [1], in [2], in assay [3], in assay [4] and in assay [5] was above 100 µM throughout. In addition, the TGI in assay [6], in assay [7] and in assay [8] was above 100 µM each time.

On to `O=c1c2cc(Br)cc(Br)c2nc(CCCl)n1-c1ccc(O)c([N+](=O)[O-])c1`, for which the TGI is 36.3 µM in assay [9]; 45 µM in [1]; 32.4 µM in [2]; 41.1 µM in [3]; 46.5 µM in assay [4]; 36.2 µM in assay [5]. The TGI in [6] came to 33.9 µM; in assay [7], 38.1 µM; in assay [8], 47.3 µM.

Regarding `Cc1cccc(C)c1NC(=O)CCc1nnc2s/c(=C\c3ccc(N(C)C)cc3)c(=O)n12`, the TGI in assay [9], in assay [1], in assay [2], in [3], in [4] and in assay [5] was above 100 µM in each case. The TGI in [6], in [7] and in assay [8] was above 100 µM in each case.

For `N#Cc1c(-c2ccccc2)cc(-c2ccc(N)cc2)[nH]c1=O`, the TGI in [9], in assay [1], in [2], in assay [3], in [4] and in [5] was above 100 µM each time. Further, the TGI in assay [6], in [7] and in [8] was above 100 µM in each case.

On to `O=[P+](O)c1ccccn1`, for which the TGI in assay [9], in assay [1], in assay [2], in assay [3], in [4] and in assay [5] was above 100 µM in each case. The TGI in assay [6], in assay [7] and in assay [8] was above 100 µM in each case.

With `O=C(Cc1nc2sc3c(c2c(=O)[nH]1)CCCC3)Nc1ccccc1`, the TGI in assay [9], in [1], in assay [2], in assay [3], in assay [4] and in assay [5] was above 100 µM each time. Besides, the TGI in [6], in assay [7] and in [8] was above 100 µM throughout.

As to `CC(C)(C)OP(=O)(OC(C)(C)C)C(O)c1ccc(/C=C(\C#N)C(N)=O)cc1` (configuration not stated), the TGI in assay [9], in assay [1], in assay [2], in [3], in [4] and in assay [5] was above 100 µM throughout. For the same compound, the TGI in assay [6], in assay [7] and in assay [8] was above 100 µM in each case.

As to `O=C1CC(c2c(-c3ccccc3)[nH]c3ccccc23)C(=O)N1c1ccccc1` (configuration not stated), the TGI in assay [1], in assay [2], in [3], in assay [4], in assay [5] and in assay [6] was above 100 µM each time. In addition, the TGI in assay [7] and in [8] was above 100 µM in each case.

On to `COC(=O)c1cccc2c3ccccc3c3ccccc3c12`, for which the TGI in [9] is 31.7 µM; in assay [1], 65.9 µM; in assay [2] it was above 100 µM; in assay [3], 83 µM; in assay [4] it was 54.7 µM; in assay [5], above 100 µM. The TGI in assay [6], in assay [7] and in assay [8] was above 100 µM throughout.

Turning to `Cc1cc(N(CCC#N)CCC#N)ccc1N=Nc1cc(Cl)ccc1Cl`, the TGI worked out at 4.97 µM in [9]; 34.9 µM in assay [1]; 28.9 µM in assay [2]; 13.1 µM in [3]; 28.1 µM in [4]; 6.5 µM in assay [5]. The TGI in assay [6] is 25.4 µM; in assay [7] it was 6.58 µM; in assay [8], 21.7 µM.

On to `O=C1/C(=C/c2ccc3c(c2)OCCO3)CCC/C1=C\c1ccc2c(c1)OCCO2`, for which the TGI was 46.8 µM in assay [9]; 57.3 µM in assay [1]; above 100 µM in assay [2]; 52 µM in assay [3]; above 100 µM in assay [5]; above 100 µM in assay [6]. Further, the figures for the TGI in [7] and in assay [8] were above 100 µM and 61.3 µM, respectively.

On to `COC(=O)CCC(=O)N1C/C(=C\c2ccccc2)C(=O)/C(=C/c2ccccc2)C1`, for which the TGI in [9] was determined as 3.67 µM; in assay [1] it was 5.87 µM; in assay [2] it was 3.75 µM; in assay [3], 4.09 µM; in [4], 4.35 µM; in [5], 0.389 µM. In addition, the TGI in [6] turned out to be 3.8 µM; in assay [7], 2.43 µM; in assay [8] it was 3.61 µM.

`N#COc1ccc(Oc2ccccc2)cc1`: the TGI in [9], in assay [1], in assay [2], in assay [3], in assay [4] and in assay [6] was above 100 µM in each case. The TGI in assay [7] and in assay [8] was above 100 µM each time.

The values are drawn from PubChem BioAssay (NCI).
